Data: patent US8642736B2, “Casein complexes” (DSM IP Assets B. V., priority 2006, dated 2014)

Assays:
[1] = Dispersion stability of 10% dispersion: resveratrol content, upper part vs after mixing; type: physicochemical; details: aqueous dispersion; likely much less using similar dispersion conditions
Procedure: The powder (2.5 g) was dispersed in deionized water (47.5 g) with stirring. The dispersion was centrifuged at 3000 rpm for 5 minutes (Sigma Centrifuge 6-10, Sigma Laborzentrifugen GmbH, Germany) to remove the un-dispersible material. The supernatant was lyophilized to yield 1.7 g powder. The powder (1 g) was suspended in deionized water (9 g) to give a 10% homogenous dispersion. A sample of the dispersion was placed in a test tube and stored at room temperature for 3 hours and then at 5° C. for 1 day. A small sample was taken from the upper part of the test tube and then a sample was taken after mixing. […] The results indicated the dispersion stability. The highly concentrate dispersion can be conveniently used for various applications in pharmaceuticals and cosmetics, food and feed, especially in beverages.
A dispersion of more than 0.005% (likely much less using similar dispersion conditions) of non-complexed resveratrol would result in precipitation of resveratrol.

[2] = Storage stability: resveratrol in supernatant of aqueous dispersions (UV method); type: physicochemical
Procedure: Resveratrol-caseinate complex used was the oven-dried material described in Example 8 (non-dispersible material was not removed by centrifugation). Crystalline resveratrol was included for comparison.
Complexed and crystalline resveratrol was dispersed in deionized water of pH 6.8 or 3.0 to give a final target dispersion concentration of 60 and 80 ppm. The desired pH was achieved by pH adjustment using dilute HCl or NaHCO3 The samples were heated in a water bath till 80° C. and then held at 80° C. for 1 minute. The samples were stored in the dark at 25° C. and 5° C. During storage, resveratrol recrystallized and precipitated in some samples. The resveratrol concentration in the supernatant were determined by a UV method and the results are shown below, […]

[3] = target 60 ppm, pH 3.0, stored in the dark at 5 C.
[4] = target 60 ppm, pH 3.0, stored in the dark at 25 C.
[5] = target 60 ppm, pH 6.8, stored in the dark at 5 C.
[6] = target 60 ppm, pH 6.8, stored in the dark at 25 C.
[7] = target 80 ppm, pH 3.0, stored in the dark at 5 C.
[8] = target 80 ppm, pH 3.0, stored in the dark at 25 C.
[9] = target 80 ppm, pH 6.8, stored in the dark at 5 C.
[10] = target 80 ppm, pH 6.8, stored in the dark at 25 C.

- dispersion concentration that would result in precipitation of resveratrol [1]: more than 0.005%
- Resveratrol in supernatant, Initial ([2]; target 60 ppm, pH 3.0, 5 C.): 58 ppm
- Resveratrol in supernatant, Initial ([2]; target 60 ppm, pH 3.0, 25 C.): 58 ppm
- Resveratrol in supernatant, 1 week [2, 3]: 28 ppm
- Resveratrol in supernatant, 1 week (% in parentheses) [2, 3]: 48%
- Resveratrol in supernatant, 2.4 week [2, 3]: 19 ppm
- Resveratrol in supernatant, 2.4 week (% in parentheses) [2, 3]: 33%
- Resveratrol in supernatant, 1 week [2, 4]: 43 ppm
- Resveratrol in supernatant, 1 week (% in parentheses) [2, 4]: 74%
- Resveratrol in supernatant, 2.4 week [2, 4]: 39 ppm
- Resveratrol in supernatant, 2.4 week (% in parentheses) [2, 4]: 67%
- Resveratrol in supernatant, Initial ([2]; target 60 ppm, pH 6.8, 5 C.): 60 ppm
- Resveratrol in supernatant, Initial ([2]; target 60 ppm, pH 6.8, 25 C.): 60 ppm
- Resveratrol in supernatant, 1 week [2, 5]: 23 ppm
- Resveratrol in supernatant, 1 week (% in parentheses) [2, 5]: 38%
- Resveratrol in supernatant, 2.4 week [2, 5]: 17 ppm
- Resveratrol in supernatant, 2.4 week (% in parentheses) [2, 5]: 28%
- Resveratrol in supernatant, 1 week [2, 6]: 45 ppm
- Resveratrol in supernatant, 1 week (% in parentheses) [2, 6]: 75%
- Resveratrol in supernatant, 2.4 week [2, 6]: 39 ppm
- Resveratrol in supernatant, 2.4 week (% in parentheses) [2, 6]: 65%
- Resveratrol in supernatant, Initial ([2]; target 80 ppm, pH 3.0, 5 C.): 80 ppm
- Resveratrol in supernatant, Initial ([2]; target 80 ppm, pH 3.0, 25 C.): 80 ppm
- Resveratrol in supernatant, 1 week [2, 7]: 28 ppm
- Resveratrol in supernatant, 1 week (% in parentheses) [2, 7]: 35%
- Resveratrol in supernatant, 2.4 week [2, 7]: 16 ppm
- Resveratrol in supernatant, 2.4 week (% in parentheses) [2, 7]: 20%
- Resveratrol in supernatant, 1 week [2, 8]: 47 ppm
- Resveratrol in supernatant, 1 week (% in parentheses) [2, 8]: 59%
- Resveratrol in supernatant, 2.4 week [2, 8]: 38 ppm
- Resveratrol in supernatant, 2.4 week (% in parentheses) [2, 8]: 48%
- Resveratrol in supernatant, Initial ([2]; target 80 ppm, pH 6.8, 5 C.): 79 ppm
- Resveratrol in supernatant, Initial ([2]; target 80 ppm, pH 6.8, 25 C.): 79 ppm
- Resveratrol in supernatant, 1 week [2, 9]: 24 ppm
- Resveratrol in supernatant, 1 week (% in parentheses) [2, 9]: 30%
- Resveratrol in supernatant, 2.4 week [2, 9]: 16 ppm
- Resveratrol in supernatant, 2.4 week (% in parentheses) [2, 9]: 20%
- Resveratrol in supernatant, 1 week [2, 10]: 45 ppm
- Resveratrol in supernatant, 1 week (% in parentheses) [2, 10]: 57%
- Resveratrol in supernatant, 2.4 week [2, 10]: 43 ppm
- Resveratrol in supernatant, 2.4 week (% in parentheses) [2, 10]: 54%
SMILES: Oc1ccc(C=Cc2cc(O)cc(O)c2)cc1 [Resveratrol, 3,4′,5-trihydroxystilbene]
